ChEMBL document CHEMBL5154929, “Optimization of the Natural Product Calothrixin A to Discover Novel Dual Topoisomerase I and II Inhibitors with Improved Anticancer Activity” (J Med Chem, 2022)
Calls of active or inactive are those of the source. No cut-off for these calls is given here.

Experiments:
A-375 [1] = assay: Cytotoxicity against human A-375 cells expressing high level of topoisomerase I/II measured after 72 hrs by MTT assay; format: functional, cell-based; conditions: A-375, 72 h
[2] = target: T1, DNA topoisomerase 1 (Homo sapiens) (UniProt P11387); assay: Inhibition of DNA topoisomerase I (unknown origin) relaxation activity at 100 uM incubated for 30 mins by chemiDoc system
T1 sequence (whole entry): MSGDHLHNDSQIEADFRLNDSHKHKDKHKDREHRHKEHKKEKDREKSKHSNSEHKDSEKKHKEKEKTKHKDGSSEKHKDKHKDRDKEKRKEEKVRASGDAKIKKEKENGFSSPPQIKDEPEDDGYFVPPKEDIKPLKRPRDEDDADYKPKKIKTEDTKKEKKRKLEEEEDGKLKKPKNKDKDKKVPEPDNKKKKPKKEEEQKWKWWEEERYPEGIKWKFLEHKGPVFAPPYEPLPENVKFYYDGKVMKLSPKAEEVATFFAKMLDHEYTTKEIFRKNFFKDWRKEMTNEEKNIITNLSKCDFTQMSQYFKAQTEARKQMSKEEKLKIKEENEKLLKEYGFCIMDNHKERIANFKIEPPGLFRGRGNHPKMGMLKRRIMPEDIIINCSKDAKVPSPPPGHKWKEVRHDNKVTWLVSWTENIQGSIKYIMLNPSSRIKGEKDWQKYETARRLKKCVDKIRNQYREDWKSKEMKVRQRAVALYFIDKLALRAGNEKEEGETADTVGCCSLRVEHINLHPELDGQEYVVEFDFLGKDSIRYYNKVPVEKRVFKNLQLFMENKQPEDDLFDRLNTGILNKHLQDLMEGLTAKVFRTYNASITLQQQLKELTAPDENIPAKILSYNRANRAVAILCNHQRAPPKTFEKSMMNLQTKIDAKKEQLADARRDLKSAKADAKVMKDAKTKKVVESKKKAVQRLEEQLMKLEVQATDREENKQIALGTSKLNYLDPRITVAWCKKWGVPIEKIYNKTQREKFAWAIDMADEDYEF

SH-SY5Y = assay: Cytotoxicity against human SH-SY5Y cells expressing low level of topoisomerase I/II measured after 72 hrs by MTT assay; format: functional, cell-based
[3] = Cytotoxicity against human L02 cells measured after 72 hrs by MTT assay; format: toxicity, cell-based
[4] = target: DNA topoisomerase 2-alpha (Homo sapiens) (UniProt P11388); assay: Inhibition of human DNA topoisomerase II-alpha relaxation activity at 100 uM incubated for 30 mins by chemiDoc system
MCF7 = assay: Cytotoxicity against human MCF7 cells expressing high level of topoisomerase I/II measured after 72 hrs by MTT assay; format: functional, cell-based; conditions: MCF7, 72 h
[5] = Cytotoxicity against human HEK293T cells measured after 72 hrs by MTT assay; format: toxicity, cell-based, HEK-293T
[6] = target: DNA topoisomerase 2-alpha (Homo sapiens) (UniProt P11388); assay: Poison activity at human topoisomerase II-alpha assessed as stabilization of enzyme-DNA cleavage complex by measuring nicked DNA formation at 100 uM after 60 mins by agarose gel electrophoresis method
A549 = assay: Cytotoxicity against human A549 cells expressing high level of topoisomerase I/II measured after 72 hrs by MTT assay; format: functional, cell-based; conditions: A549, 72 h
MDA-MB-231 = assay: Cytotoxicity against human MDA-MB-231 cells expressing high level of topoisomerase I/II measured after 72 hrs by MTT assay; format: functional, cell-based; conditions: MDA-MB-231, 72 h
HCT-116 [7] = assay: Cytotoxicity against human HCT-116 cells expressing high level of topoisomerase I/II measured after 72 hrs by MTT assay; format: functional, cell-based; conditions: HCT-116, 72 h
HCT-116 [8] = assay: Antiproliferative activity against doxorubicin sensitive human HCT-116 cells measured after 72 hrs by MTT assay; format: functional, cell-based; conditions: HCT-116, 72 h
HCT-116 [9] = assay: Antiproliferative activity against doxorubicin resistant human HCT-116 cells measured after 72 hrs by MTT assay; format: functional, cell-based; conditions: HCT-116, 72 h
A-375 [10] = assay: Induction of cell cycle arrest in human A-375 cells assessed as accumulation of cells at S phase at 80 nM incubated for 24 hrs by PI based flow cytometric analysis (RVB = 26.73%); format: functional
[11] = Aqueous solubility of the compound in saline equilibrating for 24 hrs by HPLC analysis; format: physicochemical
A-375 [12] = assay: Induction of cell cycle arrest in human A-375 cells assessed as accumulation of cells at G2 phase at 80 nM incubated for 24 hrs by PI based flow cytometric analysis (RVB = 20.34%); format: functional
A-375 [13] = assay: Induction of cell cycle arrest in human A-375 cells assessed as accumulation of cells at G1 phase at 80 nM incubated for 24 hrs by PI based flow cytometric analysis (RVB = 52.94%); format: functional
A-375 [14] = assay: In vivo antitumor activity against human A-375 cells xenografted in BALB/c nude mouse assessed as shrinkage of tumor tissue treated after 7 days of tumor implantation on right flank subcutaneously at 10 mg/kg, iv administered once per 2 days for 14 days measured once every two days; format: functional, organism-based; conditions: time 14.0 day
[15] = Microsomal stability in mouse liver microsomes assessed as clearance measured at 2 ug/ml upto 60 mins in presence of NADPH generating system and UGT incubation system by phase II metabolic stability kit method; format: ADME, Microsome; conditions: dose 2 µg/ml, read-out: CLH
A-375 [16] = assay: In vivo induction of apoptosis in human A-375 cells xenografted in BALB/c nude mouse assessed as increase in C-caspase-3 level treated after 7 days of tumor implantation on right flank subcutaneously at 10 mg/kg, iv administered once per 2 days for 14 days by measuring TUNEL positive cells under a light microscope; format: functional, organism-based; conditions: time 14.0 day
[17] = Cmax in Kunming mouse plasma at 10 mg/kg, iv administered as single dose measured after 5 to 360 mins by HPLC analysis; format: ADME, organism-based; set-up: dose 10 mg/kg, time upper 360 min, time lower 5 min, route iv
[18] = Toxicity in BALB/c nude mouse xenografted with human A-375 cells assessed as tolerability treated after 7 days of tumor implantation on right flank subcutaneously at 10 mg/kg, iv administered once per 2 days for 14 days measured once every two days; format: organism-based; conditions: in vivo, 336 h, time 14 day
[19] = Volume of distribution in Kunming mouse plasma at 10 mg/kg, iv administered as single dose measured after 5 to 360 mins by HPLC analysis; format: ADME, organism-based; conditions: time 5-360 min
A-375 [20] = assay: In vivo induction of apoptosis in human A-375 cells xenografted in BALB/c nude mouse treated after 7 days of tumor implantation on right flank subcutaneously at 10 mg/kg, iv administered once per 2 days for 14 days by measuring TUNEL positive cells under a light microscope; format: functional, organism-based; conditions: time 14.0 day
[21] = AUC in Kunming mouse plasma at 10 mg/kg, iv administered as single dose measured after 5 to 360 mins by HPLC analysis; format: ADME, organism-based; set-up: time upper 360 min, time lower 5 min, dose 10 mg/kg, route iv
A-375 [22] = assay: In vivo induction of apoptosis in human A-375 cells xenografted in BALB/c nude mouse assessed as […] treated after 7 days of tumor implantation on right flank subcutaneously at 10 mg/kg, iv administered once per 2 days for 14 days by measuring TUNEL positive cells under a light microscope; format: functional, organism-based; conditions: time 14.0 day
[23] = Half life in Kunming mouse plasma at 10 mg/kg, iv administered as single dose measured after 5 to 360 mins by HPLC analysis; format: ADME, organism-based; conditions: time 5-360 min
[24] = Clearance in Kunming mouse plasma at 10 mg/kg, iv administered as single dose measured after 5 to 360 mins by HPLC analysis; format: ADME, organism-based; conditions: time 5-360 min
[25] = Toxicity in BALB/c nude mouse xenografted with human A-375 cells assessed as body weight loss treated after 7 days of tumor implantation on right flank subcutaneously at 10 mg/kg, iv administered once per 2 days for 14 days measured once every two days; format: organism-based; conditions: in vivo, 336 h, time 14 day
[26] = Tmax in Kunming mouse plasma at 10 mg/kg, iv administered as single dose measured after 5 to 360 mins by HPLC analysis; format: ADME, organism-based; conditions: time 5-360 min
A-375 [27] = assay: In vivo antitumor activity against human A-375 cells xenografted in BALB/c nude mouse assessed as decrease in tumor weight treated after 7 days of tumor implantation on right flank subcutaneously at 10 mg/kg, iv administered once per 2 days for 14 days measured once every two days; format: functional, organism-based; conditions: time 14.0 day
[28] = Microsomal stability in mouse liver microsomes assessed as half life measured at 2 ug/ml upto 60 mins in presence of NADPH generating system and UGT incubation system by phase II metabolic stability kit method; format: ADME, Microsome; conditions: dose 2 µg/ml
[29] = Metabolic stability in mouse plasma upto 5 hrs by HPLC-UV analysis; format: ADME, cell-free
[30] = Selectivity index, ratio of IC50 for human L02 cells to IC50 for human A-375 cells; format: toxicity; conditions: L02 cells and A-375 cells, read-out: Ratio IC50

Sequence of DNA topoisomerase 2-alpha (Homo sapiens) (P11388 whole entry): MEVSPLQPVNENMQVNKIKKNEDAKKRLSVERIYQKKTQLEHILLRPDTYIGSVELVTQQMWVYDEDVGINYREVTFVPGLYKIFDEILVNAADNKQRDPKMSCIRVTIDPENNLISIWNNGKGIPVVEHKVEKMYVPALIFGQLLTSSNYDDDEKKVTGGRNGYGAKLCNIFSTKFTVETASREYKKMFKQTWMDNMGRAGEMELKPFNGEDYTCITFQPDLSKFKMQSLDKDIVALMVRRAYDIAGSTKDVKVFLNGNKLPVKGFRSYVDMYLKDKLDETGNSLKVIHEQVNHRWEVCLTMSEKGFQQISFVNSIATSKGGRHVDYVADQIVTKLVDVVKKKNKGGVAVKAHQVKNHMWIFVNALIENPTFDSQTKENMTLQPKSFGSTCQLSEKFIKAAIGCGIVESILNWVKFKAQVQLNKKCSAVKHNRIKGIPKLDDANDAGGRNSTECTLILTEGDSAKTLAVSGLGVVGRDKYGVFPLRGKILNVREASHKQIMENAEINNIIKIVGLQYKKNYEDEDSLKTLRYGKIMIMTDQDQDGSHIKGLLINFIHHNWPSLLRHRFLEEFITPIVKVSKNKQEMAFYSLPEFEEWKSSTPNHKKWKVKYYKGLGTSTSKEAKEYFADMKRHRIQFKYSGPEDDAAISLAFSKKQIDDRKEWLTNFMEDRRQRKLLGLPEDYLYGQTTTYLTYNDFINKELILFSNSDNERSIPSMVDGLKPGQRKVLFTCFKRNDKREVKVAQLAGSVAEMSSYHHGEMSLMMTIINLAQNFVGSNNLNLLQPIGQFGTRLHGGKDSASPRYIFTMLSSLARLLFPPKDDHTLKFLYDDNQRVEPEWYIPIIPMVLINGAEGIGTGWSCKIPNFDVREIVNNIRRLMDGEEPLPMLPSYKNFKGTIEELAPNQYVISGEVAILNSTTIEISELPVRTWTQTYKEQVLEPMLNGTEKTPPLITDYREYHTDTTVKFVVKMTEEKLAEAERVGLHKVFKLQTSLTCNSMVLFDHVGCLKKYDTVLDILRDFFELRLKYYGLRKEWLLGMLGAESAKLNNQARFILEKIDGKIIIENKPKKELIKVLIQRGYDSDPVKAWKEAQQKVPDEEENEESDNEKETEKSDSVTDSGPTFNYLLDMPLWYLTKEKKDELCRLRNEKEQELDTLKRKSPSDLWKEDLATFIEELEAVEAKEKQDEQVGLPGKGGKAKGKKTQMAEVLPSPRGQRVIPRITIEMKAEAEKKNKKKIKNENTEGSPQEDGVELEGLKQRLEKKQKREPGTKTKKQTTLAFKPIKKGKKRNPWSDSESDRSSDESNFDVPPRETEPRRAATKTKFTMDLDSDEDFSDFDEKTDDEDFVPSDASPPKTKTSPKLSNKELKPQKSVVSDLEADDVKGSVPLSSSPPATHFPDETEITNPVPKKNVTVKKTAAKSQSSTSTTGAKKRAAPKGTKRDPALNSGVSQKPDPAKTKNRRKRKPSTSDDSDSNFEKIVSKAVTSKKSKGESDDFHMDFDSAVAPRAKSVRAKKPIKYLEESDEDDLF

Row | SMILES | IC50 (A-375 [1]) | inhibition [2] | IC50 (SH-SY5Y) | IC50 at 72 h [3] | IC50 (MCF7) | IC50 at 72 h [5] | IC50 (A549) | IC50 (MDA-MB-231) | IC50 (HCT-116 [7]) | IC50 (HCT-116 [8]) | IC50 (HCT-116 [9]) | Activity (A-375 [10]) | solubility at 24 h [11] | Activity (A-375 [12]) | Activity (A-375 [13]) | further results
1 | CN1CCN(CCCCn2c3c(c4ccccc42)C(=O)c2c[n+]([O-])c4ccccc4c2C3=O)CC1 | 30 nM | Active | 100 nM | 80 nM | 100 nM | 100 nM | 90 nM | 110 nM | 10 nM | – | – | – | – | – | – | inhibition [4]: Active; Activity [6]: Active
2 | COc1cccc2c1C(=O)c1c(O)c3c(c(O)c1C2=O)C[C@@](O)(C(=O)CO)C[C@@H]3O[C@H]1C[C@H](N)[C@H](O)[C@H](C)O1 [DOXORUBICIN] | 260 nM | – | 800 nM | – | – | – | – | 810 nM | 340 nM | 290 nM | 2050 nM | – | – | – | – | –
3 | O=C1c2c[n+]([O-])c3ccccc3c2C(=O)c2[nH]c3ccccc3c21 [CALOTHRIXIN A] | 660 nM | Active | 1380 nM | 400 nM | 540 nM | 890 nM | 320 nM | 480 nM | 620 nM | 650 nM | 810 nM | 33.26% | < 5 µg/mL | 10.46% | 56.28% | –
4 | O=C1c2c[n+]([O-])c3ccccc3c2C(=O)c2c1c1ccccc1n2Cc1cn([C@H]2C[C@H](O)[C@@H](CO)O2)nn1 | 390 nM | – | 620 nM | 280 nM | 530 nM | 3600 nM | 350 nM | 580 nM | 120 nM | – | – | – | > 5000 µg/mL | – | – | –
5 | COc1cc([C@@H]2c3cc4c(cc3[C@@H](O[C@@H]3O[C@@H]5CO[C@@H](C)O[C@H]5[C@H](O)[C@H]3O)[C@H]3COC(=O)[C@H]23)OCO4)cc(OC)c1O [ETOPOSIDE] | 280 nM | – | 890 nM | 1220 nM | 790 nM | 1390 nM | 600 nM | 510 nM | 380 nM | 370 nM | 3520 nM | 31.79% | – | 12.07% | 56.15% | Activity (A-375 [14]): Active; microsomal CLint at 2 ug/ml [15]: 66 µL/min/mg; Activity (A-375 [16]): Active; Cmax [17]: 17700 ng/mL; Activity [18]: Toxic; Vd [19]: 0.432 L/kg; Activity (A-375 [20]): Active; AUC [21]: 6830 ng·h/mL; Activity (A-375 [22]): Active; half-life [23]: 45 min; clearance [24]: 7 mL/min/kg; Activity [25]: Toxic; Tmax [26]: 5 min; Activity (A-375 [27]): Active; half-life at 2 ug/ml [28]: 21 min; Stability [29]: Stable; selectivity ratio [30]: < 5
